Data as given in patent US10993947B2, “Treatment of skin lesions” (PIQUR THERAPEUTICS AG, priority 2016, dated 2021).

What was measured:
pPKB S473 in A2058 cells = experiment: In-cell Western blot, pPKB S473; assay type: cell-based; settings: Homo sapiens, 1 hour treatment
Description: (§1) Cells are fixed with 4% paraformaldehyde for 30 minutes at room temperature, washed 2 times with 1% BSA in PBS, permeabilized with 0.1% Triton X-100 in PBS/1% BSA for 30 minutes at room temperature and blocked with 5% goat serum in PBS/1% BSA/0.1% Triton X-100 for 30 minutes at room temperature. […] Cells are washed 3 times 5 minutes with PBS/1% BSA/0.1% triton and plate scanned with the Odyssey Infrared Scanning system using both 700 and 800 nm channels. […] To correct for background staining in the data analysis wells are treated only with secondary antibodies.
(§2) For data analysis the mean background signal from channel 700 nm and 800 nm are subtracted from each signal in channel 700 nm and 800 nm, respectively.
(§3) IC50 values of each compound are determined by plotting the normalized pPBK S473 and pS6 S235/S236 signals, respectively, versus the compound concentrations (in logarithmic scale) and then by fitting a sigmoidal dose-response curve with variable slope to the data using GraphPad™ Prism.

[1] = tested on: pS6 S235/S236 in A2058 cells; experiment: In-cell Western blot, pS6 S235/S236; assay type: cell-based; settings: Homo sapiens, 1 hour treatment
Description: as §1, §2, §3

[2] = biological target: T1, N-terminally GST-tagged mTOR (Homo sapiens, UniProt P42345); experiment: In vitro mTOR binding assay (LanthaScreen TR-FRET); settings: LanthaScreen kinase binding, Tracer 314; read-out: mTOR IC50 (binding)
T1 construct: truncated version: amino acids 1360-2549; purchased Life Technologies PR8683B
T1 sequence (P42345 1360-2549): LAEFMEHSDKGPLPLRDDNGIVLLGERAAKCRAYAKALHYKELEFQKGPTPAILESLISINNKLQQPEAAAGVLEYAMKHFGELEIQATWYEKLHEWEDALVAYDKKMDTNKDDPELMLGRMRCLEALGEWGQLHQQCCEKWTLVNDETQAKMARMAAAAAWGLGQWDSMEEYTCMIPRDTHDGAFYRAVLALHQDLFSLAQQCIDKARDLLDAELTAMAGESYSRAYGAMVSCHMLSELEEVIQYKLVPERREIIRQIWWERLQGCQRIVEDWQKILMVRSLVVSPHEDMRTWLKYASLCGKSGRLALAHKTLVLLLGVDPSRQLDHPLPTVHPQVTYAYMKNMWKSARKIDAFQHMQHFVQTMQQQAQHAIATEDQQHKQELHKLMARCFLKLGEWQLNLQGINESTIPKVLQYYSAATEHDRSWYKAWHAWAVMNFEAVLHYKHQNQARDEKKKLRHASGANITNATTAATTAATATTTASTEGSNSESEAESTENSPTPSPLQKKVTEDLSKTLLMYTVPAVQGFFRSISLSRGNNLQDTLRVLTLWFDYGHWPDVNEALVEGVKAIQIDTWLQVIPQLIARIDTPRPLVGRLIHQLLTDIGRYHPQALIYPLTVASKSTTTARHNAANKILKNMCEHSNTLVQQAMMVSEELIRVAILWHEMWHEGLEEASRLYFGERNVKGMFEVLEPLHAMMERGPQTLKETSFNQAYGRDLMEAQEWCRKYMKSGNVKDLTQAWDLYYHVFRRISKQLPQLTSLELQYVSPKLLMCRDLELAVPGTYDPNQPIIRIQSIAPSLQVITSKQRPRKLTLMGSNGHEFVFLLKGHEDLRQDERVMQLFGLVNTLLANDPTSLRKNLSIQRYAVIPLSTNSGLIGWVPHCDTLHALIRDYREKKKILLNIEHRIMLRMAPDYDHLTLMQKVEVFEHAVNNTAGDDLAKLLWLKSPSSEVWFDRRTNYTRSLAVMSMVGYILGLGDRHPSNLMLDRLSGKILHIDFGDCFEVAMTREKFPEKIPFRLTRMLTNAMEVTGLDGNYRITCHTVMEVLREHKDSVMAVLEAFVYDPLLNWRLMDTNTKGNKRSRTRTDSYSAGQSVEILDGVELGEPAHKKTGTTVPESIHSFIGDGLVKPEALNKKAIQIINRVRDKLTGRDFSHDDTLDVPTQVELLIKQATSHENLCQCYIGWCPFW
Description: A 10-point 4-fold serial dilution (highest concentration at 10 μmol/L and lowest concentration at 40 μmol/L) of each compound was tested for mTOR binding in duplicate in a 384-well plate. […] After 30 min incubation at RT, time-resolved FRET was measured with a Synergy 4 multi-mode microplate reader (Biotek Instruments) using the following settings: 100 microsecs delay before data collection, 200 microsecs time for data collection, 10 measurements per data point.
IC50 values of each compound were determined by plotting the emission ratio versus the compound concentrations (in logarithmic scale) and then by fitting a sigmoidal dose-response curve with variable slope to the data using GraphPad™ Prism.

Structure (SMILES) | IC50 (pPKB S473 in A2058 cells) | IC50 [1] | IC50 [2] | IC50 (pPKB S473 in A2058 cells; A2058, 1 h) | IC50 ([1]; A2058, 1 h)
C[C@H]1COCCN1c1nc(-c2cnc(N)nc2C(F)F)cc(N2CCOCC2)n1 [Compound 32, (S)-4′-(difluoromethyl)-2-(3-methylmorpholino)-6-morpholino-[4,5′-bipyrimidin]-2′-amine] | 0.1 µM | 0.387 µM | 0.293 µM | – | –
Nc1cc(C(F)F)c(-c2cc(N3CCOCC3)nc(N3CCOCC3)n2)cn1 [Compound 16, 4-(difluoromethyl)-5-(2,6-dimorpholinopyrimidin-4-yl)pyridin-2-amine] | 0.207 µM | 0.184 µM | 0.03 µM | – | –
CC1(C)COCCN1c1nc(-c2cnc(N)cc2C(F)F)nc(N2C3COCC2COC3)n1 [Compound 69, 4-(difluoromethyl)-5-[4-(3,3-dimethylmorpholin-4-yl)-6-(3,7-dioxa-9-azabicyclo[3.3.1]nonan-9-yl)-1,3,5-triazin-2-yl]pyridin-2-amine] | – | – | 0.021 µM | 0.244 µM | 0.14 µM
C[C@H]1COCCN1c1nc(-c2cnc(N)cc2C(F)F)cc(N2CCOCC2)n1 [Compound 31, (S)-4-(difluoromethyl)-5-(2-(3-methylmorpholino)-6-morpholinopyrimidin-4-yl)pyridin-2-amine] | 0.146 µM | 0.124 µM | 0.015 µM | – | –
Nc1cc(C(F)F)c(-c2nc(N3C4CCCC3COC4)nc(N3C4COCC3COC4)n2)cn1 [Compound 82, 4-(difluoromethyl)-5-[4-(3,7-dioxa-9-azabicyclo[3.3.1]nonan-9-yl)-6-(3-oxa-9-azabicyclo[3.3.1]nonan-9-yl)-1,3,5-triazin-2-yl]pyridin-2-amine] | – | – | 0.04 µM | 0.329 µM | 0.169 µM
Nc1ncc(-c2nc(N3CCOCC3)cc(N3CCOCC3)n2)c(C(F)(F)F)n1 [reference compound] | – | – | 1.92 µM | 0.175 µM | 0.37 µM
CC1(C)COCCN1c1nc(-c2cnc(N)cc2C(F)F)nc(N2CCOCC2(C)C)n1 [Compound 39, 5-[4,6-bis(3,3-dimethylmorpholin-4-yl)-1,3,5-triazin-2-yl]-4-(difluoromethyl)pyridin-2-amine] | – | – | 0.001 µM | 0.106 µM | 0.047 µM
C[C@@H]1COCCN1c1nc(-c2cnc(N)cc2C(F)F)nc(N2[C@H](C)COC[C@@H]2C)n1 [Compound 44, 4-(difluoromethyl)-5-[4-[(3R,5S)-3,5-dimethylmorpholin-4-yl]-6-[(3R)-3-methylmorpholin-4-yl]-1,3,5-triazin-2-yl]pyridin-2-amine] | – | – | 0.005 µM | 0.197 µM | 0.087 µM
Nc1ncc(-c2cc(N3CCOCC3)nc(N3C4CCC3COC4)n2)c(C(F)(F)F)n1 [reference compound] | – | – | 0.121 µM | 0.34 µM | 0.74 µM
Nc1cc(C(F)(F)F)c(-c2nc(N3CCOCC3)cc(N3CCOCC3)n2)cn1 [reference compound] | 0.555 µM | 0.665 µM | 0.366 µM | – | –
C[C@H]1COCCN1c1cc(-c2cnc(N)nc2C(F)(F)F)nc(N2CCOC[C@@H]2C)n1 [reference compound] | – | – | 0.287 µM | 0.193 µM | 0.617 µM
COC[C@@H]1COCCN1c1nc(-c2cnc(N)cc2C(F)F)nc(N2CCOC[C@H]2C)n1 [Compound 46, 4-(difluoromethyl)-5-[4-[(3R)-3-(methoxymethyl)morpholin-4-yl]-6-[(3R)-3-methylmorpholin-4-yl]-1,3,5-triazin-2-yl]pyridin-2-amine] | – | – | 0.036 µM | 0.956 µM | 0.426 µM
C[C@H]1COCCN1c1cc(-c2cnc(N)cc2C(F)(F)F)nc(N2CCOC[C@@H]2C)n1 [reference compound] | – | – | 0.152 µM | 0.452 µM | 0.553 µM
C[C@@H]1COCCN1c1nc(-c2cnc(N)cc2C(F)F)nc(N2[C@@H](C)COC[C@@H]2C)n1 [Compound 79, 4-(difluoromethyl)-5-[4-[(3S,5S)-3,5-dimethylmorpholin-4-yl]-6-[(3R)-3-methylmorpholin-4-yl]-1,3,5-triazin-2-yl]pyridin-2-amine] | – | – | 0.01 µM | 0.2 µM | 0.136 µM
C[C@H]1COCCN1c1nc(-c2cnc(N)nc2C(F)F)nc(N2CCOCC2)n1 [Compound 9] | 0.035 µM | 0.072 µM | 0.024 µM | – | –
Nc1ncc(-c2nc(N3CCNCC3)nc(N3CCOCC3)n2)c(C(F)F)n1 [Compound 13] | – | – | 1.02 µM | 0.043 µM | 0.15 µM
C[C@H]1COCCN1c1nc(-c2cnc(N)cc2C(F)F)nc(N2CCOCC2)n1 [Compound 8, (S)-4-(difluoromethyl)-5-(4-(3-methylmorpholino)-6-morpholino-1,3,5-triazin-2-yl)pyridin-2-amine] | 0.074 µM | 0.068 µM | 0.01 µM | – | –
C[C@@H]1COCCN1c1nc(-c2cnc(N)cc2C(F)F)nc(N2CCOCC2(C)C)n1 [Compound 45, 4-(difluoromethyl)-5-[4-(3,3-dimethylmorpholin-4-yl)-6-[(3R)-3-methylmorpholin-4-yl]-1,3,5-triazin-2-yl]pyridin-2-amine] | – | – | 0.007 µM | 0.234 µM | 0.093 µM

Structure (SMILES) | IC50 (pPKB S473 in A2058 cells) | IC50 [1] | IC50 [2] | IC50 (pPKB S473 in A2058 cells; A2058, 1 h) | IC50 ([1]; A2058, 1 h)
C[C@H]1COCCN1c1cc(-c2cnc(N)nc2C(F)F)nc(N2CCOC[C@@H]2C)n1 [Compound 26, 4′-(difluoromethyl)-2,6-bis((S)-3-methylmorpholino)-[4,5′-bipyrimidin]-2′-amine] | – | – | 0.047 µM | 0.087 µM | 0.191 µM
C[C@H]1COCCN1c1cc(-c2cnc(N)cc2C(F)F)nc(N2CCOC[C@@H]2C)n1 [Compound 25, 5-(2,6-bis((S)-3-methylmorpholino)pyrimidin-4-yl)-4-(difluoromethyl)pyridin-2-amine] | – | – | 0.032 µM | 0.303 µM | 0.294 µM
Nc1cc(C(F)F)c(-c2cc(N3C4CCC3COC4)nc(N3C4CCC3COC4)n2)cn1 [Compound 22, 5-(6-(3-oxa-8-azabicyclo[3.2.1]octan-8-yl)-2-(3-oxa-8-azabicyclo[3.2.1]octan-8-yl)pyrimidin-4-yl)-4-(difluoromethyl)pyridin-2-amine] | – | – | 0.018 µM | 0.057 µM | 0.216 µM
C[C@H]1COCCN1c1nc(-c2cnc(N)cc2C(F)(F)F)cc(N2CCOCC2)n1 [reference compound] | – | – | 0.028 µM | 0.248 µM | 0.228 µM
CC1(C)COCCN1c1nc(-c2cnc(N)cc2C(F)F)nc(N2CCOCC2)n1 [Compound 42, 4-(difluoromethyl)-5-[4-(3,3-dimethylmorpholin-4-yl)-6-morpholino-1,3,5-triazin-2-yl]pyridin-2-amine] | – | – | 0.003 µM | 0.054 µM | 0.045 µM
Nc1cc(C(F)(F)F)c(-c2cc(N3CCOCC3)nc(N3C4CCC3COC4)n2)cn1 [reference compound] | – | – | 0.088 µM | 0.564 µM | 0.562 µM
C[C@@H]1COC[C@H](C)N1c1nc(-c2cnc(N)cc2C(F)F)nc(N2[C@H](C)COC[C@@H]2C)n1 [Compound 40, 5-[4,6-bis[(3R,5S)-3,5-dimethylmorpholin-4-yl]-1,3,5-triazin-2-yl]-4-(difluoromethyl)pyridin-2-amine] | 0.252 µM | 0.16 µM | 0.005 µM | – | –
C[C@H]1COCCN1c1cc(-c2cnc(N)cc2C(F)(F)F)nc(N2CCOCC2)n1 [reference compound] | – | – | 0.376 µM | 0.883 µM | 1.1 µM
C[C@@H]1COCCN1c1nc(-c2cnc(N)cc2C(F)F)nc(N2[C@H](C)COC[C@H]2C)n1 [Compound 78, 4-(difluoromethyl)-5-[4-[(3R,5R)-3,5-dimethylmorpholin-4-yl]-6-[(3R)-3-methylmorpholin-4-yl]-1,3,5-triazirin-2-yl]pyridin-2-amine] | – | – | 0.038 µM | 0.506 µM | 0.392 µM
Nc1ncc(-c2cc(N3CCOCC3)nc(N3C4CCC3COC4)n2)c(C(F)F)n1 [Compound 24, 2-(3-oxa-8-azabicyclo[3.2.1]octan-8-yl)-4′-(difluoromethyl)-6-morpholino-[4,5′-bipyrimidin]-2′-amine] | – | – | 0.035 µM | 0.084 µM | 0.167 µM
C[C@H]1COCCN1c1nc(-c2cnc(N)nc2C(F)(F)F)cc(N2CCOCC2)n1 [reference compound] | – | – | 0.186 µM | 0.191 µM | 0.535 µM
C[C@@H]1COCCN1c1nc(-c2cnc(N)cc2C(F)F)nc(N2C3COCC2COC3)n1 [Compound 47, 4-(difluoromethyl)-5-[4-(3,7-dioxa-9-azabicyclo[3.3.1]nonan-9-yl)-6-[(3R)-3-methylmorpholin-4-yl]-1,35-triazin-2-yl]pyridin-2-amine] | – | – | 0.029 µM | 0.469 µM | 0.176 µM
Nc1cc(C(F)F)c(-c2nc(N3CCNCC3)nc(N3CCOCC3)n2)cn1 [Compound 12] | – | – | 0.543 µM | 0.208 µM | 0.515 µM
C[C@@H]1COC[C@H](C)N1c1nc(-c2cnc(N)cc2C(F)F)nc(N2CCOCC2(C)C)n1 [Compound 66, 4-(difluoromethyl)-5-[4-(3,3-dimethylmorpholin-4-yl)-6-[(3R,5S)-3,5-dimethylmorpholin-4-yl]-1,3,5-triazin-2-yl]pyridin-2-amine] | – | – | 0.004 µM | 0.244 µM | 0.139 µM
Nc1cc(C(F)F)c(-c2nc(N3CCOCC3)nc(N3CCSCC3)n2)cn1 [Compound 20] | – | – | 0.013 µM | 0.146 µM | 0.25 µM
C[C@H]1COC[C@H](C)N1c1nc(-c2cnc(N)cc2C(F)F)nc(N2[C@@H](C)COC[C@@H]2C)n1 [Compound 83, 5-[4,6-bis[(3S,5S)-3,5-dimethylmorpholin-4-yl]-1,3,5-triazin-2-yl]-4-(difluoromethyl)pyridin-2-amine] | 0.379 µM | 0.294 µM | 0.032 µM | – | –
C[C@H]1COCCN1c1cc(-c2cnc(N)nc2C(F)(F)F)nc(N2CCOCC2)n1 [reference compound] | – | – | 1.25 µM | 0.29 µM | 1.03 µM
